Assay results published in patent US8796247B2, “Indole derivative, and pharmacologically acceptable salt thereof” (Kissei Pharmaceutical Co., Ltd., priority 2011, dated 2014).

Assays:
rat EP1 receptor = target: T1, rat EP1 receptor (Rattus norvegicus, UniProt P70597); experiment: Test for confirmation of EP1 receptor antagonism: inhibition of prostaglandin E2-induced increase in intracellular calcium concentration in rat EP1 receptor-expressing COS-1 cells; type: cell-based; conditions: prostaglandin E2 10 nM, intracellular calcium fluorescence signal
T1 construct: expressed in transfected cells; host or cells: COS-1 cells, transient transfection with Lipofectamine 2000
T1 sequence (P70597 1-405): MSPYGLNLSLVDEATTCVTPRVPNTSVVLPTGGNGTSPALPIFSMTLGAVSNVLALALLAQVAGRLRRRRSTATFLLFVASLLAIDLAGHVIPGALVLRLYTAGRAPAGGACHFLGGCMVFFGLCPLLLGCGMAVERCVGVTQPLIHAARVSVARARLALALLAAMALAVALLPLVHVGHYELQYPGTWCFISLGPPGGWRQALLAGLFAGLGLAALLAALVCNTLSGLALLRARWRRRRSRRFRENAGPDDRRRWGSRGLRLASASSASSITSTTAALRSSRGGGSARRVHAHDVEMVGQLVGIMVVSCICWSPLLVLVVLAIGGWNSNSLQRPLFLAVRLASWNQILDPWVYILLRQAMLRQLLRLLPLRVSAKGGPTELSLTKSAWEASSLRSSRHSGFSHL
Protocol: Test for Confirmation of EP1 Receptor Antagonism
(1) Preparation of Rat EP1 Expression Vector
Using Rat Kidney BD Marathon-Ready cDNA (Nippon Becton Dickinson Company, Ltd.) as a template, and using a forward primer shown in (SEQ ID NO:1) and a reverse primer shown in (SEQ ID NO:2), a first run of PCR was carried out using KOD-Plus-Ver 2.0 (Toyobo Co., Ltd.). Further, using this amplification product as a template, and using a forward primer shown in (SEQ ID NO:3) and a reverse primer shown in (SEQ ID NO:4), a second run of PCR was carried out in the same manner. The amplification product obtained by the second run of PCR was incorporated into a vector (pcDNA3.1 D/V5-His-TOPO (registered trademark), Invitrogen Japan K. K.). By a conventional method, the vector containing this amplification product was introduced into E. coli (One Shot TOP10 Competent Cells, Invitrogen Corporation) and transformed. This transformed E. coli was cultured in an LB agar medium for one day. After the culture, colonies were selected and cultured in an LB liquid medium containing 50 μg/mL of ampicillin. After the culture, the vector was purified using a QIAprep Spin Miniprep Kit (Qiagen K. K.). The base sequence of the insertion site of this vector (SEQ ID NO:5) was compared with the rat EP1 base sequence (Ptger1) registered as Accession No. NM_013100 in a publicly-known database (NCBI), and as a result, the base sequences completely matched except for a single base. Further, the amino acid sequence translated by the base sequence completely matched the amino acid sequence of the rat EP1 receptor registered as an NCBI Accession No. NP_037232. Therefore, it was confirmed that the cloned gene sequence was a base sequence of the rat EP1 receptor and the obtained amino acid sequence was that of the rat EP1 receptor. The pcDNA3.1 D/V5-His-TOPO (registered trademark) into which the nucleic acid shown in (SEQ ID NO:5) had been inserted was taken as a rat EP1-expressing vector.
(2) Preparation of Rat EP1 Receptor-Expressing Cells
COS-1 cells (Dainippon Sumitomo Pharma Co., Ltd.) were cultured until they reached confluence in an incubator at 37° C. under a 5% CO2 gas condition, using a D-MEM liquid medium (high glucose and L-glutamine contained, Invitrogen Corporation) to which a penicillin-streptomycin solution (Invitrogen Corporation, final concentration: 100 U/mL as benzylpenicillin; 100 μg/mL as streptomycin) as an antibiotic, MEM nonessential amino acids (Invitrogen Corporation, final concentration: 0.1 mM), and fetal calf serum (Sanko Junyaku Co., Ltd., final concentration: 10%) were added.
(2-2) COS-1 Cell Subculture
The cells that had reached confluence were stripped with 0.05% trypsin/0.53 mM EDTA•4Na (Invitrogen Japan K. K.) and resuspended in the liquid medium. The resuspended cells were diluted and cultured in the liquid medium at a spread ratio from 1:4 to 1:8.
(2-3) Preparation of Cells for Introduction of Rat EP1-Expressing Vector
The cells that had reached confluence were stripped with 0.05% trypsin/0.53 mM EDTA•4Na, and resuspended in a D-MEM liquid medium (high glucose and L-glutamine contained, Invitrogen Corporation) to which MEM nonessential amino acids (final concentration: 0.1 mM) and fetal calf serum (final concentration: 10%) were added. In each well of a Poly D-lysine-coated 96-well microplate (BD BioCoat (registered trademark), Nippon Becton Dickinson Company, Ltd.), this resuspended cell suspension culture was prepared to be 5×10^4 cells/well in 100 μL of the liquid medium, and 100 μL of the cell suspension was dispensed and seeded in each well. After seeding, the cells were cultured in an incubator at 37° C. under a 5% CO2 gas condition. Once the cells for introduction of a rat EP1-expressing vector were adhered (about 2 hours after seeding), introduction of the rat EP1-expressing vector was carried out in the following order.
(2-4) Introduction of Rat EP1-Expressing Vector […]

Female SD rats = experiment: Inhibitory effect of compound on sulprostone-induced bladder contraction; type: in vivo, rat; conditions: urethane-anesthetized female SD rats, sulprostone 0.3 mg/kg s.c., test agent 1.0 mg/kg intravenously; for Bladder Contraction Inhibition Rate (%) 15 minutes: 15 minutes after administration; for Bladder Contraction Inhibition Rate (%) 60 minutes: 60 minutes after administration
Description: Inhibitory Effect of Compound on Sulprostone-Induced Bladder Contraction
Female SD rats were used. Under urethane anesthesia (1.25 g/kg, administered subcutaneously), a tracheal cannula (Size 8, HIBIKI) and a femoral vein cannula for administration (23G needle-equipped PESO) were inserted thereinto. The bladder cannula (PE50) was inserted from the bladder apex. The bladder cannula was connected to a three-way stopcock, and then one port was connected to a pressure transducer and the other port was connected to a syringe filled with saline. Saline was injected into the bladder at an injection rate of 3.6 mL/hour and the bladder contraction pressure was recorded at the time of injection with a recorder (RECTI-HORITZ-8K, NEC Corporation). After 10 minutes from stabilization of the bladder contraction pressure during urination, sulprostone was administered subcutaneously (0.3 mg/kg). Subsequently, once the bladder contraction pressure became constant, a test agent was administered intravenously (1.0 mg/kg). An average bladder contraction pressure during the 10 minute period before administration of sulprostone was used as a baseline (0%). Further, an average bladder contraction pressure during the 10 minute period directly before administration of the test agent was used as a maximum bladder contraction pressure (100%). The average bladder contraction pressures were measured for a 5 minute period before and after 15 minutes and 60 minutes from administration of the test agent. The ratio of this measured value to the maximum bladder contraction pressure was calculated by the following equation and regarded as an average bladder contraction rate after administration of the test agent: (Average Bladder Contraction Rate after Administration of Test Agent (%))=[(Average Bladder Contraction Pressure after Administration of Test Agent)/(Maximum Bladder Contraction Pressure)]×100 EQUATION 1
In addition, the difference between the maximum bladder contraction rate (100%) and the average bladder contraction rate (%) after administration of the test agent was calculated by the following equation and regarded as a bladder contraction inhibition rate of the test agent: (Bladder Contraction Inhibition Rate)=100%−(Average Bladder Contraction Rate after Administration of Test Agent (%)) EQUATION 2

Structure (SMILES) | IC50 (rat EP1 receptor) [nM] | Bladder Contraction Inhibition Rate (%) 15 minutes (Female SD rats) [%] | Bladder Contraction Inhibition Rate (%) 60 minutes (Female SD rats) [%]
COc1ccc2c(c1)cc(-c1ccccc1)n2Cc1cccc(C(=O)NS(C)(=O)=O)n1 [Example 1-1, N-(Methanesulfonyl)-6-(5-methoxy-2-phenylindol-1-ylmethyl)pyridine-2-carboxamide] | 47 | 67.3 | 75.5
CCS(=O)(=O)NC(=O)c1cccc(Cn2c(-c3ccccc3)cc3cc(OC)c(Cl)cc32)n1 [Example 1-6, 6-(6-chloro-5-methoxy-2-phenylindol-1-ylmethyl)-N-(ethanesulfonyl)pyridine-2-carboxamide] | 19 | 70.0 | 35.8
COc1ccc2c(c1)cc(-c1ccccc1)n2Cc1cccc(-c2nnn[nH]2)n1 [Example 2-1, 5-Methoxy-2-phenyl-1-[6-(1H-1,2,3,4-tetrazol-5-yl)pyridin-2-ylmethyl]-1H-indole] | 34 | 73.2 | 78.1
COc1ccc2c(c1)cc(C1(C)CC1)n2Cc1cccc(-c2nnn[nH]2)n1 [Example 5-5, 5-methoxy-2-(1-methylcyclopropyl)-1-[6-(1H-1,2,3,4-tetrazol-5-yl)pyridin-2-ylmethyl]-1H-indole] | 24 | 85.3 | 55.2
